Entries after “also recorded” stand apart in the source; their conditions may differ.
Columns and labels:
HDAC9 = molecular target: T1, HDAC9 (Homo sapiens, UniProt Q9UKV0); assay: Fluorogenic HDAC9 activity assay; assay type: biochemical; conditions: fluorogenic assay kit, in words
T1 construct: purchased BPS Bioscience 50069
Method: To measure the effects of MJK-001, -004, -006 and -008 on HDAC4 & 9 activity fluorogenic HDAC9 (#50069) and HDAC4 (#50064) assay kits (BPS Bioscience) were used. Briefly, these assays consist of two steps; in the first one the HDAC fluorometric substrate containing an acetylated lysine side chain is incubated with purified HDAC9. In the second step, the deacetylation sensitizes the substrate so subsequent treatment with the lysine developer produces a fluorophore that was measured by a fluorescence reader.

TNBS colitis = TNBS colitis in mice; assay type: in vivo; conditions: for overall score: overall efficacy
Method: Male C57BL/6J mice 8-10 weeks old were purchased from The Jackson Laboratory (Sacramento, CA, USA). Mice were housed 4 per cage, maintained on a 12:12 hour light-dark cycle and given access to food and water ad libitum. Following an acclimatization period of 3 to 5 days, trinitrobenzene sulfonic acid (TNBS, Millipore Sigma, St. Louis, MO, USA) colitis was induced by intracolonic (i.c.) injection of 0.05 ml TNBS solution (5 mg in 40% ethanol) via a polyethylene cannula (BD Intramedic PE-20 tubing, Thermo Fisher Scientific, Santa Clara, CA, USA) inserted 3.5 cm from the anal verge under isoflurane anesthesia (4% in O2 induction, 2.5-3% maintenance). Control mice received an injection of 40% ethanol (0.05 ml, i.c.). To test the effectiveness of the HDAC analogs, mice received a daily injection (0.1 ml, i.c.) of a selective HDAC class II inhibitor analog (50 mg/kg MJK001-013) or vehicle (5% dimethyl sulfoxide, Millipore Sigma) beginning one day prior to TNBS colitis induction (day −1) for a period of 5 days. Separate groups of mice received HDAC inhibitors or vehicle administered by daily oral gavage (50 mg/kg, 0.25 ml, p.o.). All analogs tested were first dissolved in dimethyl sulfoxide (DMSO) with rapid vortexing and subsequent dilution to 5% in sterile phosphate buffered saline (PBS; Gibco, Thermo Fisher Scientific). Vehicle contained 5% DMSO in sterile PBS. Prior to use, all solids were stored in amber (light-blocking) storage vials at 4° C. On the first day of administration, stock solutions were prepared, aliquoted and stored at −20° C. for daily use. Upon thawing, each aliquot was vortexed prior to intracolonic injection (via a polyethylene cannula) or oral gavage (20 ga×38 mm, Instech, Thermo Fisher Scientific). Following all in vivo experiments, animals were euthanized on day 4 by CO2 inhalation and cervical dislocation and the distal colons removed for further study.
Disease severity was assessed by weight loss and measurement of colon length and determination of clinical and histological damage scores on day 4 of the protocol. Briefly, clinical scores were calculated on a scale of 0-3 for degree of weight loss, bleeding, stool consistency and presence of rectal prolapse. Sections of colon (5 μm) fixed in 10% formalin, paraffin-embedded and stained with hematoxylin and eosin (H&E) were used for histological scoring using an AxioImager. Z1 microscope equipped with AxioVision software version 4.6 (Zeiss, Jena, Germany). Scoring was performed by two independent investigators blinded to the treatment conditions and resulting scores averaged. Scores were assigned based on the degree of crypt damage (0-4), polymorphonuclear neutrophil (PMN) infiltrate (0-3), erosion (0-3), and edema (0-3).
Statistical analyses were performed using GraphPad Prism (Version 5.0a; GraphPad Software, La Jolla, CA, USA). Differences were determined by unpaired t-test, 1-way analysis of variance, or a 2-way analysis of variance with Tukey's post-test. A p value <0.05 was considered to be statistically significant. Data presented are means±SEM for n animals.
Novel chemical HDAC inhibitors were developed aiming to target specific isoforms of the HDAC Class IIA members. Overall, as shown above, compounds have been synthesized, named MJK-001, -002, -003, -004, -005, -006, -007, -008, -009, -010, -011, -012 & -013. The effect of selective HDAC class IIA isoform inhibition during development of colitis in mice in vivo during TNBS administration was assessed. This mouse model is known to recapitulate many features of human Crohn's Disease. Mice received either an intracolonic (i.c.) injection or oral delivery (p.o.) of the MJK compounds once daily for a period of 5 days and health status, weight loss, and disease activity were monitored. Mice (male C57BL/6J, 8-10 wks old) are weighed and monitored daily. On the final day, blood, feces, and colonic samples for RNA, protein and histology are collected for downstream analysis. […]

[1] = i.c. administration, 50 mg/kg daily for 5 days, day 4, vs vehicle-treated mice, 50 mg/kg
[2] = i.c. administration, 50 mg/kg daily for 5 days, day 4, vs vehicle-treated mice, listed as MJK-001, 50 mg/kg
[3] = i.c. administration, 50 mg/kg daily for 5 days, day 4, vs vehicle-treated mice, listed as MJK-004, 50 mg/kg
[4] = i.c. administration, 50 mg/kg daily for 5 days, day 4, vs vehicle-treated mice, hydrochloride, 50 mg/kg
[5] = i.c. administration, 50 mg/kg daily for 5 days, day 4, vs vehicle-treated mice, listed as MJK-008, hydrochloride, 50 mg/kg
[6] = oral administration (p.o., 50 mg/kg daily)

T1 sequence (Q9UKV0 whole entry): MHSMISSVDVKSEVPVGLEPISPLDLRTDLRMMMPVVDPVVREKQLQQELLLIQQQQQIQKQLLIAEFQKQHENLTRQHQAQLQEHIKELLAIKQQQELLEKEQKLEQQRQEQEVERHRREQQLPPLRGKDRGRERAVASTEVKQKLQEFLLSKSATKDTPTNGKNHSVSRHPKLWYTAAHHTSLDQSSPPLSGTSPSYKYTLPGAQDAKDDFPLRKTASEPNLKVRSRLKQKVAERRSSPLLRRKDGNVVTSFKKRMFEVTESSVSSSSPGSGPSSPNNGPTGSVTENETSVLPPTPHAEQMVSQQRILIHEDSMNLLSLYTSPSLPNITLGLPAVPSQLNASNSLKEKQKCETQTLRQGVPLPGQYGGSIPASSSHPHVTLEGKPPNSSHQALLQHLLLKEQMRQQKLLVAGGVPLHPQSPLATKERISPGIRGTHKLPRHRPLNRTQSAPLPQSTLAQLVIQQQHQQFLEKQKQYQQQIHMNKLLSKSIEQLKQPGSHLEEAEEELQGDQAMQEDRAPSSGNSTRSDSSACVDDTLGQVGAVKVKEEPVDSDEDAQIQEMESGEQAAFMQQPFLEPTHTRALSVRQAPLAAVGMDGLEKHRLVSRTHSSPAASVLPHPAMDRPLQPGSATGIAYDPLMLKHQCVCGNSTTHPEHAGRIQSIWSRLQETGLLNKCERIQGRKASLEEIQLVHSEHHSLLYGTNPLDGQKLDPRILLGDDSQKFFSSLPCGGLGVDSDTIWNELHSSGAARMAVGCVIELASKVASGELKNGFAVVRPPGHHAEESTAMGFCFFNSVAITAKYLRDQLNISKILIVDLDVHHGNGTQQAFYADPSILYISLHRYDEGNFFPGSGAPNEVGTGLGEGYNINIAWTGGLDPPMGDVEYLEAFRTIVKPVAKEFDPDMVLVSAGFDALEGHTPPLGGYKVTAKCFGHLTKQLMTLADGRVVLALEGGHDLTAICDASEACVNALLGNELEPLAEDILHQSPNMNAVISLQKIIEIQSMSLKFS

## Cn1c(/C=C/C(=O)NO)ccc1/C=C/C(=O)c1cccc(F)c1 [MJK001, (E)-3-(5-((E)-3-(3-Fluorophenyl)-3-oxoprop-1-en-1-yl)-1-methyl-1H-pyrrol-2-yl)-N-hydro-xyacrylamide]
HDAC9
  HDAC9 activity / specificity: partially blocks
TNBS colitis; i.c. administration, 50 mg/kg daily for 5 days, day 4, vs vehicle-treated mice
  histological score: ♦♦
TNBS colitis; [1]
  clinical score: ♦♦
  colon length: ♦♦
TNBS colitis; [2]
  clinical score: statistical significance in the reduction of the clinical score
  colon length: increase of colon length

## Cn1c(/C=C/C(=O)NO)ccc1/C=C/C(=O)c1cccs1 [MJK004, (E)-N-hydroxy-3-(1-methyl-5-((E)-3-oxo-3-(thiophen-2-yl)prop-1-en-1-yl)-1H-pyrrol-2-yl)acrylamide]
HDAC9
  HDAC9 activity / specificity: very low activity against HDAC9
TNBS colitis; [1]
  clinical score: ♦♦
  colon length: ns
TNBS colitis; [3]
  clinical score: reduction in clinical scoring
  colon length: did not alter colon length

## Cn1c(/C=C/C(=O)NO)ccc1/C=C/C(=O)c1cccnc1 [MJK006, (E)-N-hydroxy-3-(1-methyl-5-((E)-3-oxo-3-(pyridin-3-yl)prop-1-en-1-yl)-1H-pyrrol-2-yl)acrylamide]
HDAC9
  HDAC9 activity / specificity: high specificity for the HDAC9 isoform; also recorded: significantly increased specificity of targeting the HDAC9 isoform
TNBS colitis; [1]
  clinical score: ♦♦
  colon length: ♦♦
  histological score: ♦♦♦
TNBS colitis; i.c. administration, 50 mg/kg daily for 5 days, day 4, vs vehicle-treated mice, listed as MJK-006, 50 mg/kg
  histological score: significant differences
TNBS colitis; i.c. administration
  overall score: substantial effect on suppressing TNBS-induced colitis

## Cl.Cn1c(/C=C/C(=O)NO)ccc1/C=C/C(=O)c1cccnc1 [MJK008, (E)-N-Hydroxy-3-(1-methyl-5-((E)-3-oxo-3-(pyridin-3-yl)prop-1-en-1-yl)-1H-pyrrol-2-yl)ac-rylamide hydrochloride]
HDAC9; hydrochloride
  HDAC9 activity / specificity: high specificity for the HDAC9 isoform; also recorded: significantly increased specificity of targeting the HDAC9 isoform
TNBS colitis; [4]
  clinical score: ♦♦
  colon length: ♦
  histological score: ♦♦♦
TNBS colitis; [5]
  clinical score: decreasing the clinical and histological score
  colon length: significant effect in preserving colon length
  histological score: decreasing the clinical and histological score
TNBS colitis; i.c. administration, hydrochloride
  overall score: substantial effect on suppressing TNBS-induced colitis
TNBS colitis; [6]
  clinical score: highly efficient in reducing the clinical score
  colon length: preserving colon length
  histology score: decreasing the histology score
